Test results taken from article PMC11981944 (Nature, 2025).

B1: Fab-B (Fab, V domains shown)
VH: EVQLQQSGPELVKPGASMKISCKTSGYSFTGYTMNWVKQSHGKNLEWIGLINPYNGDTSYNQKFKGKATLTVDKSSSTAYMELLSLTSEDSAVYYCEVINTYWGQGTLVTVSA
VL: DIVMTQSPASLAVSLGQRATISCKASQSIDYDGDNYMNWYQQKPGQPPKLLIYTTSNLESGIPARFSGSGSGTDFTLNIHPVEEGDAATYYCQQNNEDPYTFGGGTKLEIK

Key:
[1] = test system: SARS-CoV-2 rWuhan M(P132S); format: cell-based
[2] = molecular target: SARS-CoV-2 M protein (membrane protein), purified recombinant (SARS-CoV-2, UniProt P0DTC5); assay: cryo-EM structure

Row | Molecule | susceptibility of M(P132S) virus (in words) [1] | binding result [2]
1 | N#C[C@@]1(c2ccc3c(N)ncnn23)O[C@H](CO)[C@@H](O)[C@H]1O [GS-441524] | remained fully susceptible | 
2 | CC(C)(C)[C@H](NC(=O)C(F)(F)F)C(=O)N1C[C@H]2[C@@H]([C@H]1C(=O)N[C@H](C#N)C[C@@H]1CCNC1=O)C2(C)C [Nirmatrelvir] | remained fully susceptible | 
3 | B1 |  | binds
